Data taken from patent US10149852B2, “Use of sodium channel blockers for the treatment of neuropathic pain developing as a consequence of chemotherapy” (priority 2006, dated 2018).
Several values for one entry are separate records, joined by “and”; a condition that tells them apart may be missing. Identical values can stand only once. Entries after “also recorded” stand apart in the source; their conditions may differ.

How the values were obtained:
[1] = tested on: Chemotherapy Induced Neuropathic Pain (CINP); parameters: species or system Human Subjects; conditions: in vivo
[2] = parameters: species or system Human Subjects; conditions: in vivo
[3] = tested on: paclitaxel-induced painful peripheral neuropathy; parameters: species or system CD-1 mice; conditions: mouse, in vivo, sc
[4] = tested on: paclitaxel-induced cold allodynia
[5] = tested on: paclitaxel induced orofacial allodynia
[6] = tested on: paclitaxel induced paw allodynia
[7] = tested on: paclitaxel induced paw hyperalgesia
[8] = in vivo; cited from earlier work
[9] = tested on: paclitaxel-induced thermal hyperalgesia
[10] = tested on: paclitaxel-induced mechanical allodynia
[11] = paclitaxel 2 mg/kg i.p. once daily 5 days
[12] = paclitaxel 1 mg/kg i.p. days 1, 3, 5, 7, rats

For “Octahydro-12-(Hydroxymethyl)-2-imino-5,9,7,10a-dimethano-10aH-[1,3]dioxocino[6,5-d]pyrimidine-4,7,10,11,12-pentol [TTX]”, the “Responders, 30% reduction in average NPRS score from baseline to any 10 consecutive days: No, number of subjects” value [1] was 17 (68.0%) and 14 (58.3%) and 15 (60.0%) and 11 (42.3%), the “Responders, 30% reduction in average NPRS score from baseline to any 10 consecutive days: No, percent” value [1] was 17 (68.0%) and 14 (58.3%) and 15 (60.0%) and 11 (42.3%) and the “Responders, 30% reduction in average NPRS score from baseline to any week: No, number of subjects” value [1] was 16 (64.0%) and 13 (54.2%) and 15 (60.0%) and 11 (42.3%). For the same compound, the “Responders, 30% reduction in average NPRS score from baseline to any week: No, percent” value [1] was 16 (64.0%) and 13 (54.2%) and 15 (60.0%) and 11 (42.3%), the “Responders, 30% reduction in average NPRS score from baseline to any week: Yes, number of subjects” value [1] was 9 (36.0%) and 11 (45.8%) and 10 (40.0%) and 15 (57.7%) and the “Nervous system disorders, number of subjects” value [2] was 13 and 16 and 17 and 20. The “Number of Subjects with at least 1 AE” value [2] was 21 and 22 and 20 and 24, the “Paresthesia, number of subjects” value [2] was 5 and 7 and the “grade 4 AEs” value [2] was “no grade 4 AEs”. The “number of grade 3 AEs” value [2] was “four and seven”, the “number of patients with serious adverse effects (SAEs)” value [2] was “Three” and the “number of subjects with grade 3 AE” value [2] was “Four”. The “relation of the SAEs to TTX” value [2] was “two unrelated and one unlikely related”, the “severity of most AEs” value [2] was “grade 1 or 2; also recorded: mild or moderate” and the “severity of nervous system AEs” value [2] was “grade 1 or 2 save for one event of grade 3 paresthesia”. For the same compound, the “Hypesthesia oral, number of subjects” value ([2]; po) was 5 and 7 and 6 and 10, the “Oral paresthesia (most common AE), number of patients of 125” value ([2]; po) was 37 and the “Oral paresthesia (most common AE), percent” value ([2]; po) was 29.6%. For the same compound, the “dose relation of Oral Paresthesia” value ([2]; po) was “increasing trend in relation to increasing dose”, the “oral hypesthesia, number of patients of 125” value ([2]; po) was 31 and the “oral hypesthesia, percent” value ([2]; po) was 24.8%. For the same compound, the “analgesic effects in the model of neuropathic pain” value [3] was “clear analgesic effects”, the “effect on expression of paclitaxel-induced cold allodynia” value ([4]; mouse, in vivo) was “inhibited the expression” and the “days with statistically significant difference vs paclitaxel+saline, duration of licking/biting” value ([4]; mouse, in vivo, sc) was “days 10 and 14”. The “days with statistically significant difference vs paclitaxel+saline, frequency of licking/biting” value ([4]; mouse, in vivo, sc) was “days 7, 10 and 14”, the “effect on development of paclitaxel-induced cold allodynia (two variables)” value ([4]; mouse, in vivo, sc) was “did not significantly affect” and the “effect significantly different from saline, frequency of licking/biting” value ([4]; mouse, in vivo, sc) was “only in the animals treated with TTX 6 μg/kg”. The “time after injection with effect significantly different from saline, duration of licking/biting” value ([4]; mouse, in vivo, sc) was 1 h, the “effect of a single dose on allodynia in the trigeminal territory” value ([5]; rat, in vivo, sc) was “partial but significant decrease” and the “prevention of development of allodynia in the orofacial region” value ([5]; rat, in vivo, sc) was “able to prevent the development”. For the same compound, the “effect of a single dose on allodynia in the sciatic territory” value ([6]; rat, in vivo, sc) was “partial but significant decrease”, the “prevention of development of allodynia in the paw” value ([6]; rat, in vivo, sc) was “able to prevent the development” and the “effect of a single dose on paw hyperalgesia” value ([7]; rat, in vivo, sc) was “did not significantly reduce”. The “prevention of development of hyperalgesia in the paw” value ([7]; rat, in vivo, sc) was “able to prevent the development” and the “safety profile of the doses” value [8] was “acceptable safety profile”.
In the case of CC(=O)O[C@H]1C(=O)[C@@]2(C)[C@H]([C@H](OC(=O)c3ccccc3)[C@]3(O)C[C@H](OC(=O)[C@H](O)[C@@H](NC(=O)c4ccccc4)c4ccccc4)C(C)=C1C3(C)C)[C@]1(OC(C)=O)CO[C@@H]1C[C@@H]2O [paclitaxel, Paclitaxel, reference compound], the “time of maximal thermal hyperalgesia after the first injection” value [9, 11] is reported as 7 days, the “paw withdrawal latency in the plantar test vs pre-treatment day” value ([9]; paclitaxel 2 mg/kg i.p. once daily 5 days, all post-treatment days) is reported as “significantly reduced” and the “animals that did not develop thermal hyperalgesia on day 7” value ([9]; paclitaxel-treated mice) is reported as “Around 9%”. For the same compound, the “animals with increased time licking/biting (paclitaxel-responder animals)” value [4, 11] was 67%, the “time of maximal cold allodynia after the first injection” value [4, 11] was 10 to 14 days and the “induction of mechanical allodynia (threshold force, Von Frey test)” value ([10]; paclitaxel 2 mg/kg i.p. during 5 days, day 10) was “induced mechanical allodynia”. The “animals showing a reduction of the mechanical threshold” value ([10]; paclitaxel-treated mice) was 96%, the “mechanical threshold (orofacial) vs vehicle-treated group” value [5, 12] was “significantly reduced” and the “mechanical threshold (paw) vs vehicle-treated group” value [6, 12] was “significantly reduced”. The “thermal latency vs vehicle-treated group” value [7, 12] was “significantly reduced”.
